Measured values taken from patent publication US10111936B2, “Metal-glycoprotein complexes and photodynamic therapy of immune privileged sites with same” (Theralase Technologies, Inc., priority 2015, dated 2018).

Key:
[1] = Hydroxyl radical production, cell free (HPF indicator fluorescence); type: physicochemical; set-up: unit not given here
Method: The photosensitizers were diluted in phosphate buffer (pH=7.0)+100 mM NaCl or incomplete DMEM. The irradiation was performed in 96-well plates (100 uL working volume). Generation of singlet oxygen was measured by fluorescence signal of SOG indicator, generation of hydroxyl radical by fluorescence signal of HPF indicator. The signal presented is a result of subtraction of the signal in the presence of scavengers (NaN3 for singlet oxygen and DMTU for hydroxyl radical) from the total fluorescence signal.

[2] = In vivo tissue uptake, tumor versus muscle; conditions: 10 mg/kg i.v.; transferrin 1 mg/kg
Method: Transferrin was dissolved in 40% PG in phosphate buffer (pH=7.0)+100 mM NaCl (0.1 mg/100 uL) and added to the photosensitizer solution (to achieve 10 mg/kg dose). The mixture was incubated for 1 hour prior to injection, and 100 uL of the mixture was injected i.v. to each animal.

[3] = tested on: Mice; experiment: In vivo toxicity, maximum tolerated dose, i.p. escalating doses; set-up: species or system mouse; conditions: no transferrin
Method: Mice were injected (i.p.) with escalating doses of the photosensitizers with and without transferrin.

[Os+2].c1ccc2cc3nc4c5cccnc5c5ncccc5c4nc3cc2c1.c1ccc2nc(-c3ccc4ccccc4n3)ccc2c1.c1ccc2nc(-c3ccc4ccccc4n3)ccc2c1 [TLDOsH2dppn]
hydroxyl radical production ([1]; 530 nm & 1092 J cm−2, incomplete DMEM, 0.8 mg/mL transferrin): 70308 | hydroxyl radical production ([1]; 530 nm & 1092 J cm−2, incomplete DMEM, 1.6 mg/mL transferrin): 132309 | hydroxyl radical production ([1]; 530 nm & 1092 J cm−2, incomplete DMEM, 3.2 mg/mL transferrin): 164301 | hydroxyl radical production ([1]; 530 nm & 1092 J cm−2, incomplete DMEM, no transferrin): 32934 | hydroxyl radical production ([1]; 530 nm & 1092 J cm−2, phosphate buffer, 0.8 mg/mL transferrin): 41037 | hydroxyl radical production ([1]; 530 nm & 1092 J cm−2, phosphate buffer, 1.6 mg/mL transferrin): 83034 | hydroxyl radical production ([1]; 530 nm & 1092 J cm−2, phosphate buffer, 3.2 mg/mL transferrin): 120307 | hydroxyl radical production ([1]; 530 nm & 1092 J cm−2, phosphate buffer, no transferrin): 25290 | hydroxyl radical production ([1]; 635 nm & 649 J cm−2, incomplete DMEM, 0.8 mg/mL transferrin): 32531 | hydroxyl radical production ([1]; 635 nm & 649 J cm−2, incomplete DMEM, 1.6 mg/mL transferrin): 42806 | hydroxyl radical production ([1]; 635 nm & 649 J cm−2, incomplete DMEM, 3.2 mg/mL transferrin): 73624 | hydroxyl radical production ([1]; 635 nm & 649 J cm−2, incomplete DMEM, no transferrin): 12093 | hydroxyl radical production ([1]; 635 nm & 649 J cm−2, phosphate buffer, 0.8 mg/mL transferrin): 25280 | hydroxyl radical production ([1]; 635 nm & 649 J cm−2, phosphate buffer, 1.6 mg/mL transferrin): 45372 | hydroxyl radical production ([1]; 635 nm & 649 J cm−2, phosphate buffer, 3.2 mg/mL transferrin): 72316 | hydroxyl radical production ([1]; 635 nm & 649 J cm−2, phosphate buffer, no transferrin): 8804 | hydroxyl radical production ([1]; 808 nm & 4000 J cm−2, incomplete DMEM, 0.8 mg/mL transferrin): 42305 | hydroxyl radical production ([1]; 808 nm & 4000 J cm−2, incomplete DMEM, 1.6 mg/mL transferrin): 77024 | hydroxyl radical production ([1]; 808 nm & 4000 J cm−2, incomplete DMEM, 3.2 mg/mL transferrin): 102864 | hydroxyl radical production ([1]; 808 nm & 4000 J cm−2, incomplete DMEM, no transferrin): 14237 | hydroxyl radical production ([1]; 808 nm & 4000 J cm−2, phosphate buffer, 0.8 mg/mL transferrin): 13408 | hydroxyl radical production ([1]; 808 nm & 4000 J cm−2, phosphate buffer, 1.6 mg/mL transferrin): 20392 | hydroxyl radical production ([1]; 808 nm & 4000 J cm−2, phosphate buffer, 3.2 mg/mL transferrin): 56094 | hydroxyl radical production ([1]; 808 nm & 4000 J cm−2, phosphate buffer, no transferrin): 8931 | uptake of the photosensitizer into tissues, effect of transferrin [2]: increases uptake | MTD Dose [3]: 50 mg/kg
